What was measured:
Human HDAC8 = Human HDAC8 (Homo sapiens (Human), UniProt Q9BY41); experiment: Caliper endpoint assay for HDAC8 enzymatic activity; assay type: biochemical; conditions: in vitro enzymatic
Human HDAC6 = Human HDAC6 (Homo sapiens (Human), UniProt Q9UBN7); experiment: HDAC6 enzymatic activity assay (Caliper endpoint or fluorogenic format); assay type: biochemical; conditions: for IC50: in vitro enzymatic; for Selectivity (6 v 8) (fold): ratio of HDAC8 IC50/HDAC6 IC50
Human HDAC6, sequence (Q9UBN7 whole entry): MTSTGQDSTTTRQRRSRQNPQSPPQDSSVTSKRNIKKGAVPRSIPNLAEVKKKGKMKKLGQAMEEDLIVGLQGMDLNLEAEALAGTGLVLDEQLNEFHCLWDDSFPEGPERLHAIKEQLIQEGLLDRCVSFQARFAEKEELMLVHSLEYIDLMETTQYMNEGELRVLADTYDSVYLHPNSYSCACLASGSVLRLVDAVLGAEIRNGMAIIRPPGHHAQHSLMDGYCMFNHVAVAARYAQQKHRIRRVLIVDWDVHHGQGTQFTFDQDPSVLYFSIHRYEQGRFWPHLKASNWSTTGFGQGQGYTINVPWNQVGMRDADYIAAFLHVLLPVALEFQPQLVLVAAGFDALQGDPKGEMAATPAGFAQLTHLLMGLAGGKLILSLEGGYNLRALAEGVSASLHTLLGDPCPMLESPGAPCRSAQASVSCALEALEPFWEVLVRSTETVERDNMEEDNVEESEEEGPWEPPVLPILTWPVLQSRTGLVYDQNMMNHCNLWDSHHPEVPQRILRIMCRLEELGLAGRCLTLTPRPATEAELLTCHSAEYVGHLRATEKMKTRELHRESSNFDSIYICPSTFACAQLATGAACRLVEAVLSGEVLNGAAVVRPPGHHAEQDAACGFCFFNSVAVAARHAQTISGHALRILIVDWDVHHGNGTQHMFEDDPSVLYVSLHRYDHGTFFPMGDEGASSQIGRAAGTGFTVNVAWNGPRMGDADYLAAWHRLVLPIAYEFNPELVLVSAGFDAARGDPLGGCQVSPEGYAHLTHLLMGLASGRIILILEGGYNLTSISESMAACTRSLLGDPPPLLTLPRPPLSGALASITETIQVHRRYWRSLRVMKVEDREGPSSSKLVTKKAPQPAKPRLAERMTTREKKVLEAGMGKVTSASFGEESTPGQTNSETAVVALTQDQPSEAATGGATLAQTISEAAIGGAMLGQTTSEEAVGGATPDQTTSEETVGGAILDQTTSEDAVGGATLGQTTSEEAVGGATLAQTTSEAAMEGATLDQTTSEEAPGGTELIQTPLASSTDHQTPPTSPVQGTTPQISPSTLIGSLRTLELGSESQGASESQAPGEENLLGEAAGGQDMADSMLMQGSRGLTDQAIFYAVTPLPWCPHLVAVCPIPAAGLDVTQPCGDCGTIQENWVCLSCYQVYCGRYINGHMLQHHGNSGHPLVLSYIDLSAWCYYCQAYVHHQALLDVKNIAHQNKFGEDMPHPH

Human HDAC8, sequence (Q9BY41 whole entry): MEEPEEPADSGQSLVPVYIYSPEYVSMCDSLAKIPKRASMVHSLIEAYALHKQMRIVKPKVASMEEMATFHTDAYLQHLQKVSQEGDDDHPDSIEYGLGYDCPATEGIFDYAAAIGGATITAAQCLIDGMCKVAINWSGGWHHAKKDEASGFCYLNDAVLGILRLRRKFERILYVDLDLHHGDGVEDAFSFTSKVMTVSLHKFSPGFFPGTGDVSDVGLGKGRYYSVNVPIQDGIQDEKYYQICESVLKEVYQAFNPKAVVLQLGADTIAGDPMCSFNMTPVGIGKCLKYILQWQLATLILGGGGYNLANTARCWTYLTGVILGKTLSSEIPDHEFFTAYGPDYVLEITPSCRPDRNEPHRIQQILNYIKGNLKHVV

SMILES | IC50 (Human HDAC8) [nM] | IC50 (Human HDAC6) [nM] | Selectivity (6 v 8) (fold) (Human HDAC6)
Cc1noc2cc(OCc3ccc(-c4nnc(C(F)F)o4)cn3)ccc12 [Compound 59] | > 100000 | 1 to 100 | V (V: >1000)
Cn1nc(-c2nc3ccc(OCc4ccc(-c5nnc(C(F)F)o5)cn4)cc3o2)ccc1=O [Compound 204] | > 100000 | 1 to 100 | V (V: >1000)
FC(F)c1nnc(-c2ccc(COc3cncc(C(F)(F)F)c3)nc2)o1 [Compound 93] | > 100000 | 1 to 100 | V (V: >1000)
FC(F)c1nnc(-c2ccc(COc3ccc(Cl)cc3)nc2)o1 [Compound 8, 2-(6-((4-chlorophenoxy)methyl)pyridin-3-yl)-5-(difluoromethyl)-1,3,4-oxadiazole] | > 100000 | 1 to 100 | V (V: >1000)
N#Cc1ccccc1OCc1ccc(-c2nnc(C(F)F)o2)cn1 [Compound 42] | > 100000 | 1 to 100 | V (V: >1000)
Cn1nccc1OCc1ccc(-c2nnc(C(F)F)o2)cn1 [Compound 67] | > 100000 | 100 to 1000 | V (V: >1000)
N#CCc1cccc(OCc2ccc(-c3nnc(C(F)F)o3)cn2)c1 [Compound 27] | > 100000 | 1 to 100 | V (V: >1000)
CC(C)n1cnc2cc(OCc3ccc(-c4nnc(C(F)F)o4)cn3)ccc21 [Compound 212] | > 100000 | 100 to 1000 | IV (IV: >100-1000)
N#Cc1ccc(OCc2ccc(-c3nnc(C(F)F)o3)cn2)cc1 [Compound 118, 4-((5-(5-(difluoromethyl)-1,3,4-oxadiazol-2-yl)pyridin-2-yl)methoxy)benzonitrile] | 10000 to 100000 | 1 to 100 | V (V: >1000)
NC(=O)c1ccc(OCc2ccc(-c3nnc(C(F)F)o3)cn2)cc1 [Compound 122, 4-((5-(5-(difluoromethyl)-1,3,4-oxadiazol-2-yl)pyridin-2-yl)methoxy)benzamide] | > 100000 | > 100000 | V (V: >1000)
FC(F)c1nnc(-c2ccc(COc3ccon3)nc2)o1 [Compound 64] | > 100000 | 100 to 1000 | V (V: >1000)
FC(F)c1nnc(-c2ccc(COc3cccnc3)nc2)o1 [Compound 17, 2-(difluoromethyl)-5-(6-((pyridin-3-yloxy)methyl)pyridin-3-yl)-1,3,4-oxadiazole] | 10000 to 100000 | 1 to 100 | V (V: >1000)
CCn1cnc2ccc(OCc3ccc(-c4nnc(C(F)F)o4)cn3)cc21 [Compound 202] | > 100000 | 100 to 1000 | IV (IV: >100-1000)
CCn1ccc(OCc2ccc(-c3nnc(C(F)F)o3)cn2)n1 [Compound 69] | 10000 to 100000 | 100 to 1000 | IV (IV: >100-1000)
Cc1cccc(OCc2ccc(-c3nnc(C(F)F)o3)cn2)n1 [Compound 72] | > 100000 | 100 to 1000 | V (V: >1000)
Cn1c(-c2cccc(OCc3ccc(-c4nnc(C(F)F)o4)cn3)c2)nc2ccccc21 [Compound 201] |  | 1 to 100 | 

SMILES | IC50 (Human HDAC8) [nM] | IC50 (Human HDAC6) [nM] | Selectivity (6 v 8) (fold) (Human HDAC6)
FC(F)c1nnc(-c2ccc(COc3cccc(-c4nc5ccccc5[nH]4)c3)nc2)o1 [Compound 206] |  | 1 to 100 | 
Cc1ccc2ncnc(OCc3ccc(-c4nnc(C(F)F)o4)cn3)c2c1 [Compound 95] |  | 1 to 100 | 
Fc1ccc(OCc2ncc(-c3nnc(C(F)F)o3)cn2)cc1 [Compound 166, 2-(difluoromethyl)-5-(2-((4-fluorophenoxy)methyl)pyrimidin-5-yl)-1,3,4-oxadiazole] |  | 1 to 100 | 
Cc1cccc2c(OCc3ccc(-c4nnc(C(F)F)o4)cn3)ncnc12 [Compound 96] |  | 1 to 100 | 
FC(F)c1nnc(-c2ccc(COc3ccc(-c4nc5ccccc5[nH]4)cc3)nc2)o1 [Compound 207] |  | 1 to 100 | 
Cn1ccnc1OCc1ccc(-c2nnc(C(F)F)o2)cn1 [Compound 105] |  | 100 to 1000 | 
FC(F)c1nnc(-c2ccc(COc3ncnc4cc(Cl)ccc34)nc2)o1 [Compound 98] |  | 1 to 100 | 
FC(F)c1nnc(-c2ccc(COc3ccc(-c4ccccc4)cc3)nc2)o1 [Compound 185, 2-(6-(([1,1′-Biphenyl]-4-yloxy)methyl)pyridin-3-yl)-5-(difluoromethyl)-1,3,4-oxadiazole] |  | 1 to 100 | 
CN1CCc2cc(OCc3ccc(-c4nnc(C(F)F)o4)cn3)ccc2C1 [Compound 121] |  | 100 to 1000 | 
CC(Oc1ccc(F)cc1)c1ccc(-c2nnc(C(F)F)o2)cn1 (centres unmarked) [AAA, 2-(Difluoromethyl)-5-(6-(1-(4-fluorophenoxy)ethyl)pyridin-3-yl)-1,3,4-oxadiazole] |  | 1000 to 10000 | 
FC(F)c1nnc(-c2ccc(COc3nccn4ccnc34)nc2)o1 [Compound 86, 2-(difluoromethyl)-5-(6-((imidazo[1,2-a]pyrazin-8-yloxy)methyl)pyridin-3-yl)-1,3,4-oxadiazole] |  | 1 to 100 | 
FC(F)c1nnc(-c2cnc(COc3ccc4ocnc4c3)nc2)o1 [Compound 142] |  | 1 to 100 | 
Cn1nccc1-c1ccc(OCc2ccc(-c3nnc(C(F)F)o3)cn2)cc1 [Compound 199, 2-(Difluoromethyl)-5-(6-((4-(1-methyl-1H-pyrazol-5-yl)phenoxy)methyl)pyridin-3-yl)-1,3,4-oxadiazole] |  | 1 to 100 | 
Fc1cncnc1OCc1ccc(-c2nnc(C(F)F)o2)cn1 [Compound 107] |  | 1 to 100 | 
Cc1ncc(F)c(OCc2ccc(-c3nnc(C(F)F)o3)cn2)n1 [Compound 81] |  | 1 to 100 | 

Further lines, results first:

IC50 (Human HDAC8) [nM] | IC50 (Human HDAC6) [nM] | Selectivity (6 v 8) (fold) (Human HDAC6) | SMILES
> 100000 | 1 to 100 | V (V: >1000) | Fc1cc(Cl)ccc1OCc1ccc(-c2nnc(C(F)F)o2)cn1 [Compound 3, 2-(6-((4-chloro-2-fluorophenoxy)methyl)pyridin-3-yl)-5-(difluoromethyl)-1,3,4-oxadiazole]
> 100000 | 1 to 100 | V (V: >1000) | FC(F)c1nnc(-c2ccc(COc3cccc4cncnc34)nc2)o1 [Compound 56]
10000 to 100000 | 1 to 100 | IV (IV: >100-1000) | N#Cc1ccc(F)c(OCc2ccc(-c3nnc(C(F)F)o3)cn2)c1 [Compound 49]
> 100000 | 1 to 100 | V (V: >1000) | N#Cc1ccc(F)cc1OCc1ccc(-c2nnc(C(F)F)o2)cn1 [Compound 50]
> 100000 | 1 to 100 | V (V: >1000) | Fc1ccc(OCc2ccc(-c3nnc(C(F)F)o3)cn2)c(F)c1 [Compound 5, 2-(difluoromethyl)-5-(6-((2,4-difluorophenoxy)methyl)pyridin-3-yl)-1,3,4-oxadiazole]
> 100000 | 1 to 100 | V (V: >1000) | Fc1ccc(OCc2ncc(-c3nnc(C(F)F)o3)cc2F)cc1 [Compound 6, 2-(difluoromethyl)-5-(5-fluoro-6-((4-fluorophenoxy)methyl)pyridin-3-yl)-1,3,4-oxadiazole]
> 100000 | 1 to 100 | V (V: >1000) | FC(F)c1nnc(-c2ccc(COc3cccc4ccccc34)nc2)o1 [Compound 11, 2-(difluoromethyl)-5-(6-((naphthalen-1-yloxy)methyl)pyridin-3-yl)-1,3,4-oxadiazole]
 | 1 to 100 |  | FC(F)c1nnc(-c2ccc(COc3cccc4ccncc34)nc2)o1 [Compound 33]
 | 1 to 100 |  | Fc1cc(-c2nnc(C(F)F)o2)cnc1COc1cccn2ccnc12 [Compound 123]
 | 1 to 100 |  | Fc1cc(-c2nnc(C(F)F)o2)cnc1COc1cccc2ccncc12 [Compound 126]
 | 1 to 100 |  | Cn1cnc2cc(OCc3ncc(-c4nnc(C(F)F)o4)cc3F)ccc21 [Compound 147]
 | 1 to 100 |  | Fc1cc(-c2nnc(C(F)F)o2)cnc1COc1ccc2ncccc2c1 [Compound 153]
 | 1 to 100 |  | N#Cc1ccccc1OCc1ncc(-c2nnc(C(F)F)o2)cc1F [Compound 127]
 | 1 to 100 |  | N#Cc1ccc(OCc2ncc(-c3nnc(C(F)F)o3)cc2F)cc1 [Compound 165]
 | 1 to 100 |  | Fc1cc(-c2nnc(C(F)F)o2)cnc1COc1cccc2ncncc12 [Compound 179, 2-(Difluoromethyl)-5-(5-fluoro-6-((quinazolin-5-yloxy)methyl)pyridin-3-yl)-1,3,4-oxadiazole]
 | 1 to 100 |  | Cc1nc2cc(OCc3ncc(-c4nnc(C(F)F)o4)cc3F)ccc2o1 [Compound 141]
 | 1 to 100 |  | Fc1cc(-c2nnc(C(F)F)o2)cnc1COc1cccc2cccnc12 [Compound 130]
 | 1 to 100 |  | C#Cc1ccccc1OCc1ncc(-c2nnc(C(F)F)o2)cn1 [Compound 168]
 | 1 to 100 |  | Cc1noc2cc(OCc3ncc(-c4nnc(C(F)F)o4)cc3F)ccc12 [Compound 137, 6-((5-(5-(difluoromethyl)-1,3,4-oxadiazol-2-yl)-3-fluoropyridin-2-yl)methoxy)-3-methylbenzo[d]isoxazole]
 | 1 to 100 |  | Fc1cc(-c2nnc(C(F)F)o2)cnc1COc1ccc2cnccc2c1 [Compound 155]
 | 1 to 100 |  | Fc1ccc(OCc2ncc(-c3nnc(C(F)F)o3)cc2F)cc1F [Compound 129]
 | 1 to 100 |  | Fc1cc(-c2nnc(C(F)F)o2)cnc1COc1ccc2ccncc2c1 [Compound 157]
 | 1 to 100 |  | Fc1cc(-c2nnc(C(F)F)o2)cnc1COc1ccc2nccnc2c1 [Compound 151]
 | 1 to 100 |  | Fc1cc(-c2nnc(C(F)F)o2)cnc1COc1ccc2cncnc2c1 [Compound 180, 2-(difluoromethyl)-5-(5-fluoro-6-((quinazolin-7-yloxy)methyl)pyridin-3-yl)-1,3,4-oxadiazole]
 | 1 to 100 |  | Cn1cc2cc(OCc3ncc(-c4nnc(C(F)F)o4)cc3F)ccc2n1 [Compound 178, 2-(Difluoromethyl)-5-(5-fluoro-6-(((2-methyl-2H-indazol-5-yl)oxy)methyl)pyridin-3-yl)-1,3,4-oxadiazole]
 | 1 to 100 |  | FC(F)c1nnc(-c2cnc(COc3ccc4ncccc4c3)nc2)o1 [Compound 152]
